Experimental data taken from patent US20240358693A1, “METHODS OF TREATING PAIN” (Aisa Pharma, Inc., priority 2023, published 2024).

Test system: participants with SSc-RP
Test: Average severity of weekly RP attacks (VAS 0-10 cm scale)
Assay type: in vivo, human
Text: The absolute change in average severity of weekly RP attacks (VAS 0-10 cm scale) from baseline to the end of each Dosing Period was and will be a secondary outcome variable. The sponsor-developed participant-informed diary will be used to record data. Average severity of weekly RP attacks is defined as the total severity scores of RP attacks divided by total number of RP attacks within the last 7 days of each dosing period. Total severity scores of RP attacks during the last 7 days of screening period divided by the total number of RP attacks will be used as baseline for the analysis of all periods. The variable will be calculated similar to frequency data as before.

[1] = Cilnidipine 20 mg, ITT Population - Part A
[2] = Cilnidipine 20 mg, first Baseline RCS subgroup block (not named), ITT Part A
[3] = Cilnidipine 20 mg, first Baseline RCS subgroup block (not named), ITT Part A, score 0-10
[4] = Excluding Outliers, Cilnidipine 10 mg, first Baseline RCS subgroup block (not named), ITT Part A
[5] = Excluding Outliers, Cilnidipine 10 mg, first Baseline RCS subgroup block (not named), ITT Part A, score 0-10
[6] = Excluding Outliers, Cilnidipine 20 mg, first Baseline RCS subgroup block (not named), ITT Part A
[7] = Excluding Outliers, Cilnidipine 20 mg, first Baseline RCS subgroup block (not named), ITT Part A, score 0-10
[8] = Excluding Outliers, Pooled Cilnidipine 10 mg and Cilnidipine 10 mg + Tadalafil 5 mg, first Baseline RCS subgroup block (not named), ITT Part A
[9] = Excluding Outliers, Pooled Cilnidipine 10 mg and Cilnidipine 10 mg + Tadalafil 5 mg, first Baseline RCS subgroup block (not named), ITT Part A, score 0-10
[10] = Excluding Outliers, Pooled Cilnidipine 10 mg and Cilnidipine 10 mg + Tadalafil 5 mg, second Baseline RCS subgroup block (not named), ITT Part A
[11] = Excluding Outliers, Pooled Cilnidipine 10 mg and Cilnidipine 10 mg + Tadalafil 5 mg, second Baseline RCS subgroup block (not named), ITT Part A, score 0-10
[12] = Excluding Outliers, Pooled Cilnidipine 20 mg and Cilnidipine 20 mg + Tadalafil 5 mg, first Baseline RCS subgroup block (not named), ITT Part A
[13] = Excluding Outliers, Pooled Cilnidipine 20 mg and Cilnidipine 20 mg + Tadalafil 5 mg, first Baseline RCS subgroup block (not named), ITT Part A, score 0-10
[14] = Excluding Outliers, Pooled Cilnidipine 20 mg and Cilnidipine 20 mg + Tadalafil 5 mg, second Baseline RCS subgroup block (not named), ITT Part A
[15] = Excluding Outliers, Pooled Cilnidipine 20 mg and Cilnidipine 20 mg + Tadalafil 5 mg, second Baseline RCS subgroup block (not named), ITT Part A, score 0-10
[16] = Excluding Outliers, Pooled Cilnidipine, first Baseline RCS subgroup block (not named), ITT Part A
[17] = Excluding Outliers, Pooled Cilnidipine, first Baseline RCS subgroup block (not named), ITT Part A, score 0-10
[18] = Pooled (over cilnidipine doses), Excluding Outliers, ITT Population - Part A
[19] = Pooled (over cilnidipine doses), Excluding Outliers, by Baseline RCS, first subgroup, ITT Population - Part A
[20] = Pooled (over cilnidipine doses), ITT Population - Part A

COCCOC(=O)C1=C(C)NC(C)=C(C(=O)OC/C=C/c2ccccc2)C1c1cccc([N+](=O)[O-])c1 (stereo not shown) [Cilnidipine, cilnidipine]
Average Severity of Weekly RP Attacks (All Attacks), Change from Baseline, Median [1]: −1.07
Average Severity of Weekly RP Attacks (All Attacks), Mean [1]: 2.30
Average Severity of Weekly RP Attacks (All Attacks), Median [1]: 2.30
Average Severity of Weekly RP Attacks (All Attacks), Percent Change from Baseline, Mean [1]: −27.26%
Average Severity of Weekly RP Attacks (All Attacks), Percent Change from Baseline, Median [1]: −27.26%
Average Severity of Weekly RP Attacks (All Attacks), Percent Change from Baseline, Mean [2]: −27.26%
Average Severity of Weekly RP Attacks (All Attacks), Percent Change from Baseline, Median [2]: −27.26%
Average Severity of Weekly RP Attacks (All Attacks), Change from Baseline, Mean [3]: −1.07
Average Severity of Weekly RP Attacks (All Attacks), Change from Baseline, Median [3]: −1.07
Average Severity of Weekly RP Attacks (All Attacks), Mean [3]: 2.30
Average Severity of Weekly RP Attacks (All Attacks), Median [3]: 2.30
Mean % reduction in severity (Cilnidipine (20 mg) (n = 3)): 35.5%
Mean severity at baseline (Cilnidipine (20 mg) (n = 3)): 3.7
Severity (Cilnidipine (20 mg) (n = 3)): −36%
Average Severity of Weekly RP Attacks (All Attacks), Percent Change from Baseline, Mean [4]: 0.55%
Average Severity of Weekly RP Attacks (All Attacks), Percent Change from Baseline, Median [4]: 0.55%
Average Severity of Weekly RP Attacks (All Attacks), Change from Baseline, Mean [5]: 0.02
Average Severity of Weekly RP Attacks (All Attacks), Change from Baseline, Median [5]: 0.02
Average Severity of Weekly RP Attacks (All Attacks), Mean [5]: 3.05
Average Severity of Weekly RP Attacks (All Attacks), Median [5]: 3.05
Average Severity of Weekly RP Attacks (All Attacks), Percent Change from Baseline, Mean [6]: −27.26%
Average Severity of Weekly RP Attacks (All Attacks), Percent Change from Baseline, Median [6]: −27.26%
Average Severity of Weekly RP Attacks (All Attacks), Change from Baseline, Mean [7]: −1.07
Average Severity of Weekly RP Attacks (All Attacks), Change from Baseline, Median [7]: −1.07
Average Severity of Weekly RP Attacks (All Attacks), Mean [7]: 2.30
Average Severity of Weekly RP Attacks (All Attacks), Median [7]: 2.30
Average Severity of Weekly RP Attacks (All Attacks), Percent Change from Baseline, Mean [8]: −23.94%
Average Severity of Weekly RP Attacks (All Attacks), Percent Change from Baseline, Median [8]: −23.94%
Average Severity of Weekly RP Attacks (All Attacks), Change from Baseline, Mean [9]: −1.35
Average Severity of Weekly RP Attacks (All Attacks), Change from Baseline, Median [9]: −1.35
Average Severity of Weekly RP Attacks (All Attacks), Mean [9]: 2.97
Average Severity of Weekly RP Attacks (All Attacks), Median [9]: 2.97
Average Severity of Weekly RP Attacks (All Attacks), Percent Change from Baseline, Mean [10]: −21.20%
Average Severity of Weekly RP Attacks (All Attacks), Percent Change from Baseline, Median [10]: −21.20%
Average Severity of Weekly RP Attacks (All Attacks), Change from Baseline, Mean [11]: −1.32
Average Severity of Weekly RP Attacks (All Attacks), Change from Baseline, Median [11]: −1.32
Average Severity of Weekly RP Attacks (All Attacks), Mean [11]: 4.90
Average Severity of Weekly RP Attacks (All Attacks), Median [11]: 4.90
Average Severity of Weekly RP Attacks (All Attacks), Percent Change from Baseline, Mean [12]: −21.36%
Average Severity of Weekly RP Attacks (All Attacks), Percent Change from Baseline, Median [12]: −9.57%
Average Severity of Weekly RP Attacks (All Attacks), Change from Baseline, Mean [13]: −0.84
Average Severity of Weekly RP Attacks (All Attacks), Change from Baseline, Median [13]: −0.39
Average Severity of Weekly RP Attacks (All Attacks), Mean [13]: 2.78
Average Severity of Weekly RP Attacks (All Attacks), Median [13]: 2.40
Average Severity of Weekly RP Attacks (All Attacks), Percent Change from Baseline, Mean [14]: −23.23%
Average Severity of Weekly RP Attacks (All Attacks), Percent Change from Baseline, Median [14]: −23.23%
Average Severity of Weekly RP Attacks (All Attacks), Change from Baseline, Mean [15]: −1.53
Average Severity of Weekly RP Attacks (All Attacks), Change from Baseline, Median [15]: −1.53
Average Severity of Weekly RP Attacks (All Attacks), Mean [15]: 5.06
Average Severity of Weekly RP Attacks (All Attacks), Median [15]: 5.06
Average Severity of Weekly RP Attacks (All Attacks), Percent Change from Baseline, Mean [16]: −17.99%
Average Severity of Weekly RP Attacks (All Attacks), Percent Change from Baseline, Median [16]: −7.69%
Average Severity of Weekly RP Attacks (All Attacks), Change from Baseline, Mean [17]: −0.71
Average Severity of Weekly RP Attacks (All Attacks), Change from Baseline, Median [17]: −0.20
Average Severity of Weekly RP Attacks (All Attacks), Mean [17]: 2.55
Average Severity of Weekly RP Attacks (All Attacks), Median [17]: 2.40
Average Severity of Weekly RP Attacks (All Attacks), Change from Baseline, Mean [18]: −0.71
Average Severity of Weekly RP Attacks (All Attacks), Change from Baseline, Median [18]: −0.20
Average Severity of Weekly RP Attacks (All Attacks), Mean [18]: 2.55
Average Severity of Weekly RP Attacks (All Attacks), Median [18]: 2.40
Average Severity of Weekly RP Attacks (All Attacks), Percent Change from Baseline, Mean [18]: −17.99%
Average Severity of Weekly RP Attacks (All Attacks), Percent Change from Baseline, Median [18]: −7.69%
Average Severity of Weekly Symptomatic RP Attacks (Mean) [19]: 2.79
Average Severity of Weekly Symptomatic RP Attacks (Median) [19]: 2.40
Average Severity of Weekly Symptomatic RP Attacks, Change from Baseline, Mean [19]: −0.87
Average Severity of Weekly Symptomatic RP Attacks, Change from Baseline, Median [19]: −0.33
Average Severity of Weekly Symptomatic RP Attacks, Percent Change from Baseline, Mean [19]: −19.22%
Average Severity of Weekly Symptomatic RP Attacks, Percent Change from Baseline, Median [19]: −12.02%
Average Severity of Weekly RP Attacks (All Attacks), Change from Baseline, Mean [20]: −0.71
Average Severity of Weekly RP Attacks (All Attacks), Change from Baseline, Median [20]: −0.20
Average Severity of Weekly RP Attacks (All Attacks), Mean [20]: 2.55
Average Severity of Weekly RP Attacks (All Attacks), Median [20]: 2.40
Average Severity of Weekly RP Attacks (All Attacks), Percent Change from Baseline, Mean [20]: −17.99%
